Assays:
southern crabgrass [1] = experiment: Test Example 5: herbicidal effect by foliage application, plastic box (Table 20, symbol F); assay type: in vivo, southern crabgrass (Digitaria ciliaris)
Method in brief: (§1)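 Sow seeds spot-wise in sterilized diluvial soil; cover with ~1.5 cm soil. Grow 14 days in greenhouse, 25° C. to 30° C. Spray foliage with emulsion diluted to predetermined amount. Rate effect after 3 weeks.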

windgrass [2] = experiment: Test Example 5: herbicidal effect by foliage application, plastic box (Table 20, symbol L); assay type: in vivo, windgrass (Apera spica-venti)
Method in brief: as §1

green foxtail [3] = experiment: Test Example 5: herbicidal effect by foliage application, plastic box (Table 20, symbol G); assay type: in vivo, green foxtail (Setaria viridis)
Method in brief: as §1

Italian ryegrass [4] = experiment: Test Example 5: herbicidal effect by foliage application, plastic box (Table 20, symbol K); assay type: in vivo, Italian ryegrass (Lolium multiflorum)
Method in brief: as §1

lambsquarters [5] = experiment: Test Example 5: herbicidal effect by foliage application, plastic box (Table 20, symbol O); assay type: in vivo, lambsquarters (Chenopodium album)
Method in brief: as §1

rice flat sedge = experiment: Test Example 3: herbicidal effect by foliage application, Wagner pot (Table 18, symbol E); assay type: in vivo, rice flat sedge (Cyperus iria); conditions: 320 g/ha
Method in brief: (§2)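 Plants were sown in alluvial soil held under 0.1–0.5 cm standing water and grown 14 days in a greenhouse at 25–30 °C. An emulsifiable formulation, water-diluted to the set dose, was then sprayed onto the foliage, and effects were scored three weeks later using previously defined criteria.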

barnyard grass [6] = experiment: Test Example 5: herbicidal effect by foliage application, plastic box (Table 20, symbol H); assay type: in vivo, barnyard grass (Echinochloa crus-galli)
Method in brief: as §1

blackgrass [7] = experiment: Test Example 5: herbicidal effect by foliage application, plastic box (Table 20, symbol J); assay type: in vivo, blackgrass (Alopecurus myosuroides)
Method in brief: as §1

velvetleaf [8] = experiment: Test Example 5: herbicidal effect by foliage application, plastic box (Table 20, symbol M); assay type: in vivo, velvetleaf (Abutilon theophrasti)
Method in brief: as §1

false cleavers = experiment: Test Example 5: herbicidal effect by foliage application, plastic box (Table 20, symbol Q); assay type: in vivo, false cleavers (Galium spurium)
Method in brief: as §1

persian speedwell [9] = experiment: Test Example 5: herbicidal effect by foliage application, plastic box (Table 20, symbol R); assay type: in vivo, Persian speedwell (Veronica persica)
Method in brief: as §1

Chinese sprangletop = experiment: Test Example 3: herbicidal effect by foliage application, Wagner pot (Table 18, symbol D); assay type: in vivo, chinese sprangletop (Leptochloa chinensis); conditions: 320 g/ha
Method in brief: as §2

chickweed [10] = experiment: Test Example 5: herbicidal effect by foliage application, plastic box (Table 20, symbol P); assay type: in vivo, common chickweed (Stellaria media); conditions: 320 g/ha, foliage application after 14-day growth, evaluated three weeks after application
Method in brief: as §1

redroot pigweed [11] = experiment: Test Example 5: herbicidal effect by foliage application, plastic box (Table 20, symbol N); assay type: in vivo, redroot pigweed (Amaranthus retroflexus); conditions: 320 g/ha, foliage application after 14-day growth, evaluated three weeks after application
Method in brief: as §1

wild oat [12] = experiment: Test Example 5: herbicidal effect by foliage application, plastic box (Table 20, symbol I); assay type: in vivo, wild oat (Avena fatua)
Method in brief: as §1

barnyard grass [13] = experiment: Test Example 3: herbicidal effect by foliage application, Wagner pot (Table 18, symbol H); assay type: in vivo, barnyard grass (Echinochloa crus-galli); conditions: 320 g/ha
Method in brief: as §2

redroot pigweed [14] = experiment: Test Example 4: herbicidal effect by soil treatment (Table 19, symbol N); assay type: in vivo, redroot pigweed (Amaranthus retroflexus); conditions: amount of applied herbicide 194 g/ha
Method in brief: (§3)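 Applied as a water-diluted emulsion, the compound was sprayed onto soil covering newly sown seeds. Evaluation came three weeks after application, in a greenhouse held at 25° C. to 30° C.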

persian speedwell [15] = experiment: Test Example 4: herbicidal effect by soil treatment (Table 19, symbol R); assay type: in vivo, Persian speedwell (Veronica persica); conditions: amount of applied herbicide 194 g/ha
Method in brief: as §3

Italian ryegrass [16] = experiment: Test Example 4: herbicidal effect by soil treatment (Table 19, symbol K); assay type: in vivo, Italian ryegrass (Lolium multiflorum); conditions: amount of applied herbicide 194 g/ha
Method in brief: as §3

barnyard grass [17] = experiment: Test Example 4: herbicidal effect by soil treatment (Table 19, symbol H); assay type: in vivo, barnyard grass (Echinochloa crus-galli); conditions: amount of applied herbicide 194 g/ha
Method in brief: as §3

lambsquarters [18] = experiment: Test Example 4: herbicidal effect by soil treatment (Table 19, symbol O); assay type: in vivo, lambsquarters (Chenopodium album); conditions: amount of applied herbicide 194 g/ha
Method in brief: as §3

chickweed [19] = experiment: Test Example 4: herbicidal effect by soil treatment (Table 19, symbol P); assay type: in vivo, common chickweed (Stellaria media); conditions: amount of applied herbicide 194 g/ha
Method in brief: as §3

green foxtail [20] = experiment: Test Example 4: herbicidal effect by soil treatment (Table 19, symbol G); assay type: in vivo, green foxtail (Setaria viridis); conditions: amount of applied herbicide 194 g/ha
Method in brief: as §3

southern crabgrass [21] = experiment: Test Example 4: herbicidal effect by soil treatment (Table 19, symbol F); assay type: in vivo, southern crabgrass (Digitaria ciliaris); conditions: amount of applied herbicide 194 g/ha
Method in brief: as §3

windgrass [22] = experiment: Test Example 4: herbicidal effect by soil treatment (Table 19, symbol L); assay type: in vivo, windgrass (Apera spica-venti); conditions: amount of applied herbicide 194 g/ha
Method in brief: as §3

blackgrass [23] = experiment: Test Example 4: herbicidal effect by soil treatment (Table 19, symbol J); assay type: in vivo, blackgrass (Alopecurus myosuroides); conditions: amount of applied herbicide 194 g/ha
Method in brief: as §3

velvetleaf [24] = experiment: Test Example 4: herbicidal effect by soil treatment (Table 19, symbol M); assay type: in vivo, velvetleaf (Abutilon theophrasti); conditions: amount of applied herbicide 194 g/ha
Method in brief: as §3

wild oat [25] = experiment: Test Example 4: herbicidal effect by soil treatment (Table 19, symbol I); assay type: in vivo, wild oat (Avena fatua); conditions: amount of applied herbicide 194 g/ha
Method in brief: as §3

[26] = 320 g/ha, foliage application after 14-day growth, evaluated three weeks after application
[27] = foliage application, 194 g/ha, three weeks after application

COc1ccccc1-c1sc2c(OC)cccc2c1-c1c(O)c(C)nn(C)c1=O [4-039]
herbicidal effect on F: southern crabgrass (evaluation grade 0-5) (southern crabgrass [1]; [26]): 3 (Herbicidal rate of 40% or more and less than 70%)
herbicidal effect on L: windgrass (evaluation grade 0-5) (windgrass [2]; [26]): 3 (Herbicidal rate of 40% or more and less than 70%)
herbicidal effect on G: green foxtail (evaluation grade 0-5) (green foxtail [3]; [26]): 4 (Herbicidal rate of 70% or more and less than 90%)
herbicidal effect on K: Italian ryegrass (evaluation grade 0-5) (Italian ryegrass [4]; [26]): 0 (Herbicidal rate of 5% or less (almost no effect))
herbicidal effect on O: lambsquarters (evaluation grade 0-5) (lambsquarters [5]; [26]): 2 (Herbicidal rate of 20% or more and less than 40%)
herbicidal effect on rice flat sedge (E) (rice flat sedge): 3 (Herbicidal rate of 40% or more and less than 70%)
herbicidal effect on H: barnyard grass (evaluation grade 0-5) (barnyard grass [6]; [26]): 3 (Herbicidal rate of 40% or more and less than 70%)
herbicidal effect on J: blackgrass (evaluation grade 0-5) (blackgrass [7]; [26]): 2 (Herbicidal rate of 20% or more and less than 40%)
herbicidal effect on M: velvetleaf (evaluation grade 0-5) (velvetleaf [8]; [26]): 4 (Herbicidal rate of 70% or more and less than 90%)
herbicidal effect on Q: false cleavers (evaluation grade 0-5) (false cleavers; [26]): 3 (Herbicidal rate of 40% or more and less than 70%)
herbicidal effect on R: persian speedwell (evaluation grade 0-5) (persian speedwell [9]; [26]): 3 (Herbicidal rate of 40% or more and less than 70%)
herbicidal effect on Chinese sprangletop (D) (Chinese sprangletop): 3 (Herbicidal rate of 40% or more and less than 70%)
herbicidal effect on P: chickweed (evaluation grade 0-5) (chickweed [10]): 2 (Herbicidal rate of 20% or more and less than 40%)
herbicidal effect on N: redroot pigweed (evaluation grade 0-5) (redroot pigweed [11]): 3 (Herbicidal rate of 40% or more and less than 70%)
herbicidal effect on I: wild oat (evaluation grade 0-5) (wild oat [12]; [26]): 3 (Herbicidal rate of 40% or more and less than 70%)
herbicidal effect on barnyard grass (H) (barnyard grass [13]): 4 (Herbicidal rate of 70% or more and less than 90%)

Cc1ccc2oc(-c3ccc(F)cc3)c(-c3c(O)c(C)nn(C)c3=O)c2c1 [9-004]
herbicidal effect on southern crabgrass (F) (southern crabgrass [1]; [27]): 2 (Herbicidal rate of 20% or more and less than 40%)
herbicidal effect on windgrass (L) (windgrass [2]; [27]): 0 (Herbicidal rate of 5% or less (almost no effect))
herbicidal effect on green foxtail (G) (green foxtail [3]; [27]): 3 (Herbicidal rate of 40% or more and less than 70%)
herbicidal effect on Italian ryegrass (K) (Italian ryegrass [4]; [27]): 5 (Herbicidal rate of 90% or more (almost completely withered))
N: redroot pigweed, herbicidal effect grade (redroot pigweed [14]): 3 (Herbicidal rate of 40% or more and less than 70%)
R: persian speedwell, herbicidal effect grade (persian speedwell [15]): 1 (Herbicidal rate of 5% or more and less than 20%)
herbicidal effect on lambsquarters (O) (lambsquarters [5]; [27]): 3 (Herbicidal rate of 40% or more and less than 70%)
K: Italian ryegrass, herbicidal effect grade (Italian ryegrass [16]): 4 (Herbicidal rate of 70% or more and less than 90%)
H: barnyard grass, herbicidal effect grade (barnyard grass [17]): 3 (Herbicidal rate of 40% or more and less than 70%)
herbicidal effect on barnyard grass (H) (barnyard grass [6]; [27]): 3 (Herbicidal rate of 40% or more and less than 70%)
O: lambsquarters, herbicidal effect grade (lambsquarters [18]): 5 (Herbicidal rate of 90% or more (almost completely withered))
herbicidal effect on blackgrass (J) (blackgrass [7]; [27]): 3 (Herbicidal rate of 40% or more and less than 70%)
P: chickweed, herbicidal effect grade (chickweed [19]): 3 (Herbicidal rate of 40% or more and less than 70%)
herbicidal effect on velvetleaf (M) (velvetleaf [8]; [27]): 3 (Herbicidal rate of 40% or more and less than 70%)
G: green foxtail, herbicidal effect grade (green foxtail [20]): 2 (Herbicidal rate of 20% or more and less than 40%)
herbicidal effect on false cleavers (Q) (false cleavers; [27]): 4 (Herbicidal rate of 70% or more and less than 90%)
F: southern crabgrass, herbicidal effect grade (southern crabgrass [21]): 2 (Herbicidal rate of 20% or more and less than 40%)
herbicidal effect on persian speedwell (R) (persian speedwell [9]; [27]): 5 (Herbicidal rate of 90% or more (almost completely withered))
L: windgrass, herbicidal effect grade (windgrass [22]): 0 (Herbicidal rate of 5% or less (almost no effect))
J: blackgrass, herbicidal effect grade (blackgrass [23]): 0 (Herbicidal rate of 5% or less (almost no effect))
herbicidal effect on wild oat (I) (wild oat [12]; [27]): 0 (Herbicidal rate of 5% or less (almost no effect))
M: velvetleaf, herbicidal effect grade (velvetleaf [24]): 0 (Herbicidal rate of 5% or less (almost no effect))
I: wild oat, herbicidal effect grade (wild oat [25]): 0 (Herbicidal rate of 5% or less (almost no effect))

From patent publication US20230085307A1, “PYRIDAZINONE COMPOUND AND HERBICIDE” (NISSAN CHEMICAL CORPORATION, priority 2019, published 2023)
